What was measured:
[1] = Blood morphology in K562 xenograft mice; details: for GRA / MON / HGB / WBC / MPV / RBC / RDW / MCH / MCHC / HCT / MCV / LYMP: N=4; for GRA / MON / LYMP: standard range 0.0-99.0; for HGB: standard range 1.1-18; for WBC: standard range 3.0-15; for MPV: standard range 4.6-7.3; for RBC: standard range 5.0-12; for RDW: standard range 11.5-14.5; for MCH: standard range 12-24.5; for MCHC: standard range 21.6-42; for HCT: standard range 36-52; for MCV: standard range 44-69
Protocol: Eight-week-old female NOD.Cg-Prkdcscid Il2rgtm1Wjl/SzJ NSG mice (Jackson Laboratory, Bar Harbor, ME, USA) were injected subcutaneously into the dorsal fold with 1 × 10^6 K562 cells of the human chronic myeloid leukemia (CML) line in a final volume of 100 µL (0.5% of the mouse weight). On day 3 after cell administration, mice were randomly assigned to each group, and on days 4–17 of the experiment, the selected tested compounds and control solutions were administered intraperitoneally or orally. During the experiment, subcutaneous tumors and body weight were measured daily. Tumor growth during the experiment was measured with an electronic display caliper. The theoretical tumor volume [mm], was calculated according to the formula (a^2 × b) * 0.5, where a is the shorter tumor axis [mm] and b is the longer tumor axis [mm]. On day 26, the experiment was terminated: blood was collected and analyzed for cellular morphology and standard biochemistry metabolites. Tumors were weighed.
Control and treated mice were grouped according to the tested compounds and the scheme of their administrations (doses, administration frequencies, routes of administration) in the CML xenogeneic model obtained by subcutaneous transplantation of 1 × 10^6 cells of the human CML blast line K562 into mice NOD.Cg-Prkdcscid Il2rgtm1Wjl/SzJ (NSG).
Hydroxyurea K562 500 mg/kg, IP Aqua pro 1 x daily 8

[2] = Solubility in selected solvents; type: physicochemical
Source text: Supplementary Information
Table S1. Solubility of BK124.1 in selected solvents. In bold are marked solvents in which BK124.1 is soluble and stable, adequate for the administration in vivo.
Solvent Formulation Comments
Water 0.9% NaCl insoluble
10% ethanol in 0.9% NaCl insoluble
Cyclodextrin ɑ-cyclodextrin in water insoluble
β-cyclodextrin in water insoluble
γ-cyclodextrin in water insoluble […]
DMSO < 100% in water insoluble
Surfactant 20% Solutol HS 15 in 0.9% NaCl insoluble
20% Solutol HS 15 in PBS insoluble
20% Solutol HS 15, 10% ethanol in water 0.9% NaCl soluble/stable
10% Solutol HS 15, 10% ethanol in water 0.9% NaCl soluble/stable

K562 cells = assay: K562 cell cycle analysis; type: cell-based, human; details: 5 µM, after 24 h; lesser extent after 48 h
Protocol: BK124.1 or DMSO was added to cells and after 24 or 48 h incubation. Cells were fixed and stained with 50 µg/mL propidium iodide (Sigma-Aldrich, St. Louis, MO, USA) with 50 µg/mL DNAse-free RNase. The cell cycle was analyzed on a FACSCalibur cytometer (Becton Dickinson, Franklin Lakes, NJ, USA) using ModFit LT 3.2 software (Verity Software House, Topsham, ME, USA). […]
incubated overnight at 37 °C and analyzed using an iMark Microp late absorbance reader (Bio-Rad, Hercules, CA, USA). Results were calculated relative to control cells treated with DMSO only.
[…] CD34+ cells were plated at a concentration of 2.5 × 10^5 cells/mL in a 24-well plate. […] A f t e r a further 24 hours, cells were harvested and stained according to the manufacturer's protocol using the Annexin V-FITC kit for the detection of apoptosis (BD, Franklin Lakes, NJ, USA). Stained cells were immediately analyzed on a BD FACSCalibur using CellQuest softwa re (BD, Franklin Lakes, NJ, USA).
Cells were seeded at a concentration of 1-2 × 10^5 cells/mL in a 6-well plate. After 24 hours of pre-incubation, BK124.1 in DMSO was added to the cells (vDMSO/vmedium), and incubated for 24 or 48 hours.
After incubation, cells were washed twice with ice-cold PBS (Mg2+ and Ca2+-free), resuspended in ice-cold 70% ethanol, and placed at -20 °C for 24 hours. […]
Flow cytometry analysis of CD243 (P-glycoprotein) […]

[3] = 20 mg/kg IP daily 14 days, mean ± SD
[4] = 30 mg/kg IP daily 14 days, mean ± SD
[5] = 30 mg/kg IP daily 14 days, mean

Molecule `CCC12C(=O)C(CC)(C(c3ccccc3)=C1c1ccccc1)C1C(=O)N(CC(O)CNC(C)C)C(=O)C12` (stereo not shown) [BK124.1, 4-[2-hydroxy-3-(propan-2-ylamino)propyl]-1,7-diethyl-8,9-diphenyl-4-azatricyclo [5.2.1.02,6]dec-8-ene-3,5,10-trione] has a GRA [1, 3] of 39.3±9.8%, an MON [1, 3] of 17.8±2.8% and an HGB [1, 3] of 12.3 ± 0.7 g/dL. For the same molecule, the WBC [1, 3] was 14.9±4.7 103/μL, the MPV [1, 3] was 5.0±0.2 μm3 and the RBC [1, 3] was 7.1±0.4 106/μL. It also gave an RDW [1, 3] of 13.1±0.4%, an MCH [1, 3] of 17.3 ± 0.3 pg and an MCHC [1, 3] of 32.4 ± 0.3 g/dL. For the same molecule, the HCT [1, 3] was 38.0±2.3%, the MCV [1, 3] was 53.3±0.5 and the LYMP ([1]; 20 mg/kg IP daily 14 days, mean) was 42.9%. The MON [1, 4] was 15.4±3.8%, the HGB [1, 4] was 13.5 ± 0.5 g/dL and the WBC [1, 4] was 10.5±5.0 103/μL. The MPV [1, 4] was 5.1±0.2 μm3, the RBC [1, 4] was 7.9±0.2 106/μL and the RDW [1, 4] was 12.9±0.1%. It also gave an MCH [1, 4] of 17.2 ± 0.4 pg, an MCHC [1, 4] of 32.4 ± 0.6 g/dL and an HCT [1, 4] of 41.7±0.9%. It also gave an MCV [1, 4] of 52.8±1.0, a GRA [1, 5] of 43.1% and an LYMP [1, 5] of 41.6%. The Blood morphology parameters ([1]; doses as in Table S3) was “within the norm”, the Solubility ([2]; 0.9% NaCl) was “insoluble” and the Solubility ([2]; 10% Solutol HS 15, 10% ethanol in water 0.9% NaCl) was “soluble/stable”. For the same molecule, the Solubility ([2]; 10% ethanol in 0.9% NaCl) was “insoluble”, the Solubility ([2]; 20% Solutol HS 15, 10% ethanol in water 0.9% NaCl) was “soluble/stable” and the Solubility ([2]; 20% Solutol HS 15 in 0.9% NaCl) was “insoluble”. The Solubility ([2]; 20% Solutol HS 15 in PBS) was “insoluble”, the Solubility ([2]; DMSO 100%) was “soluble/stable” and the Solubility ([2]; DMSO < 100% in water) was “insoluble”. For the same molecule, the Solubility ([2]; ɑ-cyclodextrin in water) was “insoluble”, the Solubility ([2]; β-cyclodextrin in water) was “insoluble” and the Solubility ([2]; γ-cyclodextrin in water) was “insoluble”. For the same molecule, the Cell cycle effect (K562 cells) was “profound G2/M arrest”.

From article PMC9332833 (Cancers, 2022)
